According to US9834750B2, “Cell-to-cell communication without exchange of mediating diffusible factors or using any physical contact between cells” (priority 2013, dated 2017):

What was measured:
P2X3 = target: T1, P2X3 (Mus musculus, UniProt Q3UR32); assay: ATP-induced [Ca++]i transients in DRG neurons, Fura-2 fluorescence imaging, dish-in-dish culture; format: cell-based
T1 construct: endogenous in cells; host or cells: primary lumbosacral DRG neurons of C57BL/6J mice
T1 sequence (Q3UR32 1-397): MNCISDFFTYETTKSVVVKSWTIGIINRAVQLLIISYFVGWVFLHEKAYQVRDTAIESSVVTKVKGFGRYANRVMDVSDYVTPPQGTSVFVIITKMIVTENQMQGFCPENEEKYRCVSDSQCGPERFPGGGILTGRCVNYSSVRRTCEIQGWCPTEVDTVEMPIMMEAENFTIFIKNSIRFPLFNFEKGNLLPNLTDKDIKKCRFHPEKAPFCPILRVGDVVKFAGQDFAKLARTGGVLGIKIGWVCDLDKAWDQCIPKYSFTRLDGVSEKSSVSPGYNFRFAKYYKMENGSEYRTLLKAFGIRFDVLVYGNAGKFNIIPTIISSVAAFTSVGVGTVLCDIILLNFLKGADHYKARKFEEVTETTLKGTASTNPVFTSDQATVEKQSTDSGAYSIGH
Description: (§1) DRG tissues were obtained from C57BL/6J (Jackson Laboratory; 20 g). Upon arrival, mice were housed in microisolator caging and maintained on 12 hour light/dark cycle in a temperature controlled environment. The mice had access to food and water ad libitum for two weeks. All studies were carried out in accordance with the guidelines of the Institutional Animal Care and Use Committee (IACUC) of Charles R. Drew University of Medicine and Science and the NIH Guide for the Care and Use of Laboratory Animals.
(§2) Lumbosacral adult DRG cells (level L1-S-1) were collected under sterile technique and placed in ice cold medium Dulbecco's Modified Eagle's Medium (DMEM; Sigma-Aldrich, St. Louis, Mo.). Adhering fat and connective tissue were removed and each isolated DRG tissue was minced with sterile scissors and placed immediately in a medium consisting of 5 ml of DMDM containing 0.5 mg/ml of trypsin (Sigma Type III), 1 mg/ml of collagenase (Sigma Type IA) and 0.1 mg/ml of DNAase (Sigma Type III) and all kept at 37 degrees Centigrade for 30 minutes with agitation.
(§3) After dissociation of the ganglia soybean trypsin inhibitor (Sigma Type III) was used to terminate cell dissociation. Cell suspensions were centrifuged for one minute at 1000 rpm and the cell pellets were resuspended in DMEM supplemented with 5% fetal bovine serum (FBS), 2 mM glutamine-penicillin-streptomycin mixture, 1 ug/ml DNAase, and 5 ng/ml of NGF (Sigma).
(§4) Cells were then placed on Matrigel® (Invitrogen, Carlsbad, Calif.) coated 15-mm coverslips (Collaborative Research Co., Bedford Pa.) and kept at 37 degrees Centigrade in a 5% CO2 incubator for 24 hours, then given fresh media and maintained in primary culture until used for experimental procedures.
(§5) Adjacent culture of SH-SY5Y cells with dorsal root ganglion cells occurred as follows. A dish-in-dish system involving a physically separate outer “surround” cell culture well and a separate inner “center” cell culture well was constructed, both wells capable of being managed independently (FIG. 1).
(§6) Mouse DRG neuron cells were seeded in the center well which medium consisted of 5% FBS, 2 mM glutamine-penicillin-streptomycin mixture, 1 ug/mL DNAase, and 5 ng/mL NGF for 24 hours at 5% CO2 and 37 degrees Centigrade. Thus, the two cell populations were co-dish-in-dish cultured, separated but adjacent to each other for 12 hours prior to assessing [Ca++]i response to chemical stimulation. […]
Culture of normal control DRG cells juxtaposed with media containing no cells took place as follows. To establish additional control conditions for assessing the effect of non-diffusible cell-to-cell communication two additional controls were performed: 1) dish-in-dish culture of normal control DRG cells in the center culture well with DRG cell media only in the surround culture well; and 2) dish-in-dish culture of normal control DRG cells in the center culture well with human SH-SY5Y neuroblastoma cell media only in the surround culture well.
(§7) [Ca++]i fluorescence imaging was carried out. DRG neurons were loaded with fluorescent dye […] Fura-2 AM (Invitrogen, Carlsbad, Calif.) for 45 minutes at 37 degrees Centigrade in HBSS supplemented with 20 mM HEPES, pH 7.4. The cover slips were mounted in an RC-26 recording chamber P-4 (Warner Instruments, Hamden, Conn.) and placed on a stage of an Olympus IX51 inverted microscope (Olympus America, Center Valley, Pa.). Observations were made at room temperature (20-23 degrees Centigrade) with a 20× UApo/340 objective. Neurons were bathed and perfused with HBSS buffer using gravity at a rate of 1-2 ml/min.
Fluorescence intensity at 505 nm with excitation at 334 nm and 380 nm were captured as digital images (sampling rates from 0.1 to 2 seconds). Regions of interest were identified within the soma from which quantitative measurements were made by re-analysis of stored image sequences using Slidebook® Digital Microscopy software. […]

DRG neurons = assay: basal [Ca++]i in DRG neurons, Fura-2 fluorescence imaging; format: cell-based, mouse; details: E2 100 nM by itself
Description: as §1
Lumbosacral adult DRG cells (level L1-S-1) were collected under sterile technique and placed in ice cold medium Dulbecco's Modified Eagle's Medium (DMEM; Sigma-Aldrich, St. Louis, Mo.). […]
[Ca++]i fluorescence imaging was carried out. […]
Fluorescence intensity at 505 nm with excitation at 334 nm and 380 nm were captured as digital images (sampling rates from 0.1 to 2 seconds). Regions of interest were identified within the soma from which quantitative measurements were made by re-analysis of stored image sequences using Slidebook® Digital Microscopy software. [Ca++]i was determined by ratiometric method of Fura-2 fluorescence from calibration of a series of buffered Ca++ standards. […]
All of the data were expressed as the mean±SEM. […]

TRPV1 = target: T2, TRPV1 (Mus musculus, UniProt Q704Y3); assay: capsaicin-induced [Ca++]i transients in DRG neurons, Fura-2 fluorescence imaging, dish-in-dish culture; format: cell-based
T2 construct: endogenous in cells; host or cells: primary lumbosacral DRG neurons of C57BL/6J mice
Description: as §1, §2, §3, §4, §5, §6, §7
Fluorescence intensity at 505 nm with excitation at 334 nm and 380 nm were captured as digital images (sampling rates from 0.1 to 2 seconds). Regions of interest were identified within the soma from which quantitative measurements were made by re-analysis of stored image sequences using Slidebook® Digital Microscopy software. [Ca++]i was determined by ratiometric method of Fura-2 fluorescence from calibration of a series of buffered Ca++ standards. E2 was applied acutely for five minutes onto the experimental chamber.
Repeated application of drugs was achieved by superfusion into individual neurons in a rapid mixing chamber for specific intervals (100-500 ms). […]

[1] = neuroblastoma SH-SY5Y cells in the surround well

T2 sequence (Q704Y3 whole entry): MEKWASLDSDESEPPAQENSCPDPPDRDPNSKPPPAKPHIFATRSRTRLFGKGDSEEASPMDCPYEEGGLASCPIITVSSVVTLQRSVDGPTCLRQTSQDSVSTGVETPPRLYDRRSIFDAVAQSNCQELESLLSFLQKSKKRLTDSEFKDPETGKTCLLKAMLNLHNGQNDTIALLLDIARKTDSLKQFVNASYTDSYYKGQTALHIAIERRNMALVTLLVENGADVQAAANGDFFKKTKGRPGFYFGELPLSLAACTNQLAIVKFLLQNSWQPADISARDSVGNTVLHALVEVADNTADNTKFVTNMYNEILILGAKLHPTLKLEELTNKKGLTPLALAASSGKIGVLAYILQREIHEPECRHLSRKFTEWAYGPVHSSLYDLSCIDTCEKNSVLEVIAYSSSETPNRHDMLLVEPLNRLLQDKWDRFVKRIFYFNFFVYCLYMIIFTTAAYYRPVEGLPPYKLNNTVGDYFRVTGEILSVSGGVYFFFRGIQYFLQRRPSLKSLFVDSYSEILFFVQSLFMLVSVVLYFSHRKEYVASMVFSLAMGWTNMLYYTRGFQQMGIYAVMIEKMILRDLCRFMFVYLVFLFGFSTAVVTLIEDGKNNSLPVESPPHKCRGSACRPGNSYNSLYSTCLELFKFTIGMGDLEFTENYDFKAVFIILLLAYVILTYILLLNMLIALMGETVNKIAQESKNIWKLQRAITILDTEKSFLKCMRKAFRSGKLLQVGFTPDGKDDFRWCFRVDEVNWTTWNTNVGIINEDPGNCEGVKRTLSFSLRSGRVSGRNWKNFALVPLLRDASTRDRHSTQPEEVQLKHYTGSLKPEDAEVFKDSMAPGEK

**Q.** What does the source list for `Nc1ncnc2c1ncn2[C@@H]1O[C@H](COP(=O)(O)OP(=O)(O)OP(=O)(O)O)[C@@H](O)[C@H]1O` [ATP]?
**A.** [Ca++]i spikes on ATP application (P2X3; 10 second application of ATP 10 uM, DRG neurons in center and surround wells): equal [Ca++]i spikes; ATP-induced [Ca++]i responses, initial stimulation (P2X3; ATP 10 uM, DRG neurons exposed to KCL (50 mM) in the surround well, p<0.001): four fold higher; ATP-induced [Ca++]i response with media only in surround well (P2X3; ATP 10 uM, SH-SY5Y media without cells in the surround well): as occurred under control conditions; ATP-induced [Ca++]i response (P2X3; ATP 10 uM, neuroblastoma SH-SY5Y cells in the surround well, n=4): 193 ± 40.6 nM; ATP-induced [Ca++]i responses, subsequent stimulation (P2X3; ATP 10 uM, ten minute intervals, DRG neurons exposed to KCL (50 mM) in the surround well, p<0.001): significantly reduced; ATP-induced [Ca++]i transient (P2X3; initial ATP (10 uM) response before E2, DRG cells in surround well (control), mean±SEM, n=5): 425.86 ± 49.5 nM; ATP-stimulated [Ca++]i with KCL media only in surround well (P2X3; media with 50 mM KCL without cells in the surround well): as was observed in the control

**Q.** Which “effect on ATP-induced [Ca++]i spikes” value (P2X3; BAPTA 10 mM, Ca++-free media) does the source give for `O=C(O)CN(CC(=O)O)c1ccccc1OCCOc1ccccc1N(CC(=O)O)CC(=O)O` [BAPTA] here?
**A.** Its value is “eliminated”.

**Q.** For `C[C@]12CC[C@@H]3c4ccc(O)cc4CC[C@H]3[C@@H]1CC[C@@H]2O` [E2, 17 β-estradiol], which “effect on basal [Ca++]i” value (DRG neurons) is on record?
**A.** The value was “no effect”.

**Q.** What about the “peak of capsaicin-induced [Ca++]i transients with E2” value (TRPV1; capsaicin 100 nM, E2 100 nM applied first, mean±SEM, n=5, p<0.05) of the same compound?
**A.** The value was 175.01 ± 34.8 nM.

**Q.** And the “effect on capsaicin-induced TRPV1-mediated [Ca++]i flux” value (TRPV1; [1])?
**A.** The value was “attenuated”.

**Q.** And the “ATP-induced [Ca++]i transient after E2” value (P2X3; ATP 10 uM after five-minute incubation with E2 (100 nM), mean±SEM, n=5, p<0.05)?
**A.** The value was 171.17 ± 48.9 nM.

**Q.** And the “reversibility of the effect on ATP-induced [Ca++]i” value (P2X3; E2 100 nM)?
**A.** Its value is “reversible”.

**Q.** And the “effect on ATP-induced [Ca++]i transients” value (P2X3; E2 100 nM, control conditions)?
**A.** The value was “attenuated”.

**Q.** And the “effect of E2 on ATP-induced P2X3-mediated [Ca++]i” value (P2X3; [1])?
**A.** Its value is “abolished”.

**Q.** For `C[C@]12CC[C@@H]3c4ccc(O)cc4C[C@@H](CCCCCCCCC[S+]([O-])CCCC(F)(F)C(F)(F)F)[C@H]3[C@@H]1CC[C@@H]2O` (some centres unmarked) [ICI 182,780], which “effect on the 17 β-estradiol inhibitory effect on ATP-induced [Ca++]i transients” value (P2X3; ICI 182,780 1 nM) is on record?
**A.** The value was “blocked”.

**Q.** With `Cc1nc(N=Nc2ccc(S(=O)(=O)O)cc2S(=O)(=O)O)c(COP(=O)(O)O)c(C=O)c1O` [PPADS] as the compound, how does the “effect on ATP-induced [Ca++]i transients” value (P2X3; pretreatment with PPADS 5 uM, ATP 10 uM) read?
**A.** The value was “blocked”.

**Q.** How did the “reversibility of the effect of capsaicin” value (TRPV1) turn out when `COc1cc(CNC(=O)CCCC/C=C/C(C)C)ccc1O` [capsaicin] was run?
**A.** Its value is “not reversible”.

**Q.** And the “peak of capsaicin-induced [Ca++]i transients” value (TRPV1; capsaicin 100 nM without E2, control conditions, mean±SEM, n=5)?
**A.** Its value is 399.21 ± 44.5 nM.

**Q.** What about the “capsaicin-induced [Ca++]i response with media only in surround well” value (TRPV1; capsaicin 100 nM, SH-SY5Y media without cells in the surround well) of the same compound?
**A.** Its value is “as occurred under control conditions”.

**Q.** What about the “capsaicin-induced [Ca++]i response” value (TRPV1; capsaicin 100 nM, neuroblastoma SH-SY5Y cells in the surround well, n=4) of the same compound?
**A.** Its value is 145.90 ± 28.84 nM.

**Q.** And the “[Ca++]i spikes on capsaicin application” value (TRPV1; capsaicin 3 second 100 nM by fast superfusion)?
**A.** The value was “produced [Ca++]i spikes”.

**Q.** For `Oc1cc2c(cc1O)CN(C(=S)NCCc1ccc(Cl)cc1)CCC2` [capsazepine], which “effect on capsaicin-induced [Ca++]i spikes” value (TRPV1; capsazepine 100 nM, capsaicin 100 nM 3 second) is on record?
**A.** The value was “almost completely blocked”.
